Assay results: the supplement of paper PMC6723410

System: GUMC-403
Assay: AC50 for reduction of cell viability; higher = less potent
Settings: library / dose series: MIPE library, 11-point 1:3 dilution; 48 h

Structure (SMILES)	AC50 for reduction of cell viability
CCc1c(O)cc(O)c(C(=O)c2ccc(OCCN3CCOCC3)c(OC)c2)c1CC(=O)N(CCOC)CCOC	2.09 µM
CCOc1cc2ncc(C#N)c(Nc3ccc(F)c(Cl)c3)c2cc1NC(=O)/C=C/CN(C)C	0.0296 µM
CCc1cnn2c(NCc3ccc[n+]([O-])c3)cc(N3CCCC[C@H]3CCO)nc12	0.0469 µM
CN(C)C1CCN(C(=O)c2ccc(NC(=O)Nc3nc(N4CCOCC4)nc(N4CCOCC4)n3)cc2)CC1	0.0372 µM
COc1cc2ncnc(Nc3cc(Br)c(O)c(Br)c3)c2cc1OC	1.48 µM
CN(C)c1ccc(C(=O)NCCCCCCC(=O)NO)cc1	18.7 µM
CC[P](CC)(CC)=[Au][S][C@@H]1O[C@H](COC(C)=O)[C@@H](OC(C)=O)[C@H](OC(C)=O)[C@H]1OC(C)=O	9.35 µM

Same assay, conditions: library / dose series: NPC library, 8-point 1:5 dilution; 48 h

Structure (SMILES)	AC50 for reduction of cell viability
COc1cccc2c1C(=O)c1c(O)c3c(c(O)c1C2=O)C[C@@](O)(C(C)=O)C[C@@H]3O[C@H]1C[C@H](N)[C@H](O)[C@H](C)O1	2.66 µM
CCCCCCCCCCCC[N+](C)(C)CCOc1ccccc1.[Br-]	26.6 µM
CCN1C(=CC=Cc2ccc3ccccc3[n+]2CC)C=Cc2ccccc21.[I-]	2.66 µM
O=C1NCCN1CCN1CCC(c2cn(-c3ccc(F)cc3)c3ccc(Cl)cc23)CC1	2.66 µM
CN(C)c1ccc2nc3ccc(N(C)C)cc3[s+]c2c1.[Cl-]	26.6 µM
C[C@@H]1O[C@@H](O[C@H]2C[C@@H](O)[C@]3(CO)[C@H]4[C@H](O)C[C@]5(C)[C@@H](C6=CC(=O)OC6)CC[C@]5(O)[C@@H]4CC[C@]3(O)C2)[C@H](O)[C@H](O)[C@H]1O	0.075 µM
[Cl-].C/[N+](C)=C1\C=C\C(C=C1)=C(/c2ccc(cc2)N(C)C)c3ccc(cc3)N(C)C	13.3 µM
C/C(C)=C\CNc3ncnc1c3ncn1[C@@H]2O[C@H](CO)[C@@H](O)[C@H]2O	9.44 µM
CO[C@@]12[C@H](COC(N)=O)C3=C(C(=O)C(C)=C(N)C3=O)N1C[C@@H]1N[C@@H]12	16.8 µM
CCCCCCCCCCCCCCCC[N+](C)(C)C.[Br-]	21.1 µM
CC[n+]1c(-c2ccccc2)c2cc(N)ccc2c2ccc(N)cc21.[Br-]	9.44 µM
O=C(CCCN1CC=C(n2c(=O)[nH]c3ccccc32)CC1)c1ccc(F)cc1	18.8 µM
CCOC(=O)[C@@](C)(N)Cc1ccc(O)c(O)c1.Cl	6.68 µM
C[C@H]1O[C@@H](O[C@H]2[C@@H](O)C[C@H](O[C@H]3[C@@H](O)C[C@H](O[C@H]4CC[C@@]5(C)[C@H](CC[C@@H]6[C@@H]5CC[C@]5(C)[C@@H](C7=CC(=O)OC7)CC[C@]65O)C4)O[C@@H]3C)O[C@@H]2C)C[C@H](O)[C@@H]1O	0.237 µM
Cc1cc(N)c2cc(NC(=O)Nc3ccc4nc(C)cc(N)c4c3)ccc2n1.Cl.Cl	3.76 µM
C[C@H]1O[C@@H](O[C@H]2CC[C@@]3(C)[C@H](CC[C@@H]4[C@@H]3C[C@@H](O)[C@]3(C)[C@@H](C5=CC(=O)OC5)CC[C@]43O)C2)C[C@H](O)[C@@H]1O[C@H]1C[C@H](O)[C@H](O[C@H]2C[C@H](O)[C@H](O[C@@H]3O[C@H](CO)[C@@H](O)[C@H](O)[C@H]3O)[C@@H](C)O2)[C@@H](C)O1	0.106 µM
Cc1cc2nc3ccc(N(C)C)cc3[s+]c2cc1N.[Cl-]	18.8 µM
Oc1c(Cl)cc(Cl)c(Cl)c1Cc1c(O)c(Cl)cc(Cl)c1Cl	16.8 µM
C[C@@H]1O[C@@H](O[C@@H]2C=C3CC[C@@H]4[C@H](CC[C@]5(C)[C@@H](c6ccc(=O)oc6)CC[C@]45O)[C@@]3(C)CC2)[C@H](O)[C@H](O)[C@H]1O	0.0119 µM
C[n+]1cc2c3c(ccc2c2ccc4cc5c(cc4c21)OCO5)OCO3	1.3 µM
CC(=O)Oc1ccc(C2(c3ccc(OC(C)=O)cc3)C(=O)Nc3ccccc32)cc1	0.841 µM

Structure (SMILES)	AC50 for reduction of cell viability
C=C[C@@]1(C)CC(=O)[C@]2(O)[C@@]3(C)[C@@H](O)CCC(C)(C)[C@@H]3[C@H](O)[C@H](OC(C)=O)[C@@]2(C)O1	1.68 µM
N=C(N/N=C\c1ccc(Cl)cc1)N/N=C/c1ccc(Cl)cc1	8.41 µM
CC[C@H](O)C(C[C@H](C)N(C)C)(c1ccccc1)c1ccccc1.Cl	44.1 µM
O=c1[nH]c2ccccc2n1C1CCN(CCCC(c2ccc(F)cc2)c2ccc(F)cc2)CC1	2.66 µM
CCN(CC)CCNc1ccc(CO)c2sc3ccccc3c(=O)c12	26.6 µM
C[C@@]12C(=O)OC(=O)[C@]1(C)C1CCC2O1	3.35 µM
Cc1nc(Nc2ncc(C(=O)Nc3c(C)cccc3Cl)s2)cc(N2CCN(CCO)CC2)n1	0.0841 µM
COc1cccc2c1C(=O)c1c(O)c3c(c(O)c1C2=O)C[C@@](O)(C(=O)CO)C[C@@H]3O[C@H]1C[C@H](N)[C@H](O)[C@H](C)O1.Cl	11.9 µM
CCCCCNC(=N)N/N=C/c1c[nH]c2ccc(OC)cc12	18.8 µM
CN(C)C(=S)SSC(=S)N(C)C	18.8 µM
COc1cc2ncnc(Nc3ccc(F)c(Cl)c3)c2cc1OCCCN1CCOCC1	1.19 µM
Cc1cc(OCCOCC[N+](C)(C)Cc2ccccc2)ccc1C(C)(C)CC(C)(C)C.[Cl-]	23.7 µM
CCCCC(CC)CNC(=N)NC(=N)NCCCCCCNC(=N)NC(=N)NCC(CC)CCCC.Cl.Cl (centres undefined)	2.66 µM
CC(O)C(=O)O.CCOc1ccc2nc3cc(N)ccc3c(N)c2c1.O	18.8 µM
COc1cccc2c1C(=O)c1c(O)c3c(c(O)c1C2=O)C[C@@](O)(C(=O)CO)CC3OC1CC(N2CCOC(OC)C2)C(O)C(C)O1 (some centres undefined)	0.0211 µM
CC(C)C[C@H](NC(=O)[C@H](CCc1ccccc1)NC(=O)CN1CCOCC1)C(=O)N[C@@H](Cc1ccccc1)C(=O)N[C@@H](CC(C)C)C(=O)[C@@]1(C)CO1	1.19 µM
CCCCCCCCCCCCCC[N+](C)(C)C.[Br-]	26.6 µM
C#Cc1cccc(Nc2ncnc3cc(OCCOC)c(OCCOC)cc23)c1	0.106 µM
CCN(CC)CCCC(C)Nc1c2ccc(Cl)cc2nc2ccc(OC)cc12.Cl.Cl.O.O (centres undefined)	21.1 µM
CN(C)C(=S)SC(=S)N(C)C	5.31 µM

System: GUMC-403
Assay: viability at highest tested concentration (max response) relative to DMSO (% of DMSO control); higher = less cytotoxic
Settings: library / dose series: MIPE library, 11-point 1:3 dilution; top concentration 46.1 µM; 48 h
Outline: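 Viability at the highest tested concentration is given relative to vehicle control. For this, conditionally reprogrammed patient-derived GUMC-403 papilloma cells at 700/well in 1536-well plates were exposed to 23 nL of pinned compound for 48 h. Luminescence from CellTiter-Glo was read on a ViewLux and scaled between empty wells (0%) and vehicle wells (100%).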

Structure (SMILES)	viability
CCc1c(O)cc(O)c(C(=O)c2ccc(OCCN3CCOCC3)c(OC)c2)c1CC(=O)N(CCOC)CCOC	56.6
CCOc1cc2ncc(C#N)c(Nc3ccc(F)c(Cl)c3)c2cc1NC(=O)/C=C/CN(C)C	76.1
CCc1cnn2c(NCc3ccc[n+]([O-])c3)cc(N3CCCC[C@H]3CCO)nc12	62.2
CN(C)C1CCN(C(=O)c2ccc(NC(=O)Nc3nc(N4CCOCC4)nc(N4CCOCC4)n3)cc2)CC1	44.5
COc1cc2ncnc(Nc3cc(Br)c(O)c(Br)c3)c2cc1OC	73.9
CN(C)c1ccc(C(=O)NCCCCCCC(=O)NO)cc1	33.9
CC(C)c1ccccc1Cc1cc(C(=O)Nc2ccc([S+](=O)([O-])c3ccccc3C(C)(C)C)cc2)c(O)c(O)c1O	56.4
Cc1cccc(-c2n[nH]cc2-c2ccc3ncccc3n2)n1	126
CCCCCCNC(=O)N1\C=C(F)/C(=O)NC1=O	106
CN1CCc2c(c3ccccc3n2Cc2ccc(C(=O)NO)cc2)C1	107
Cc1nn(Cc2ccccc2Cl)c(C)c1CN(C)CC(O)COc1ccc(Cl)cc1 (centres undefined)	90.9
C=C[C@H]1CN2CCC1C[C@H]2[C@H](O)c1ccnc2ccccc12 (some centres undefined)	101
OC(COC1=C2C(=O)\C=C(/OC2=CC=C1)C([O-])=O)COC3=C4C(=O)\C=C(/OC4=CC=C3)C([O-])=O	113
O=C1c2c(O)cc(O)cc2OC(c2ccc(O)c(O)c2)C1O (centres undefined)	116
CCNC(=O)C[C@H]1/N=C(/C2=CC=C(Cl)C=C2)C3=CC(=CC=C3[N]4C(=NN=C14)C)OC	93.5
Cn1ccc2cc3c(cc21)CCN3C(=O)Nc1cccnc1	126
CCC(C)(Oc1ccc(C2(c3ccc(OC(C)(CC)C(=O)O)cc3)CCCCC2)cc1)C(=O)O (centres undefined)	131
CCCCCCCCCCCCc1ccc([S+](=O)([O-])Nc2nncs2)cc1	118
CCN1\C=C(\C(O)=O)C(=O)C2=C1C=C(N3CCNCC3)C(=C2)F	121
C/C=C1\C2C=C(C)CC1(N)c1ccc(=O)[nH]c1C2 (centres undefined)	118
O=C1CCCC(=O)C1C(=O)c1ccc(C(F)(F)F)cc1[N+](=O)[O-]	104
Fc1ccc(Cl)cc1-c1nc(Nc2ccncc2)c2nccnc2n1	128
CC(C)[C@H]1C(=O)N[C@H](CO)Cc2c[nH]c3cccc(c23)N1C	107
CC/1=C(/C(CC(=O)N1)C2=CC=C(C=C2)C(F)(F)F)C(=O)NC3=C(F)C=C4[NH]N=CC4=C3 (centres undefined)	108
COc1cc(N2CCN(C)CC2)ccc1Nc1nc(N)c(C(=O)c2c(Cl)cccc2Cl)s1	120
COc1c(Cl)cc2c([nH]c3cnccc32)c1NC(=O)c1cccnc1C	96.7
